This passage reports IC50 results from patent US5789432A, “Aromatase-inhibiting composition containing azole derivative” (Kureha Kagaku Kogyo Kabushiki Kaisha, priority 1993, dated 1998).

The target of this assay is T1, Aromatase (Homo sapiens, UniProt P11511).
T1 construct: Microsomes of human placenta; from tissue; host or cells: human placenta, microsomes
T1 sequence (P11511 1-503): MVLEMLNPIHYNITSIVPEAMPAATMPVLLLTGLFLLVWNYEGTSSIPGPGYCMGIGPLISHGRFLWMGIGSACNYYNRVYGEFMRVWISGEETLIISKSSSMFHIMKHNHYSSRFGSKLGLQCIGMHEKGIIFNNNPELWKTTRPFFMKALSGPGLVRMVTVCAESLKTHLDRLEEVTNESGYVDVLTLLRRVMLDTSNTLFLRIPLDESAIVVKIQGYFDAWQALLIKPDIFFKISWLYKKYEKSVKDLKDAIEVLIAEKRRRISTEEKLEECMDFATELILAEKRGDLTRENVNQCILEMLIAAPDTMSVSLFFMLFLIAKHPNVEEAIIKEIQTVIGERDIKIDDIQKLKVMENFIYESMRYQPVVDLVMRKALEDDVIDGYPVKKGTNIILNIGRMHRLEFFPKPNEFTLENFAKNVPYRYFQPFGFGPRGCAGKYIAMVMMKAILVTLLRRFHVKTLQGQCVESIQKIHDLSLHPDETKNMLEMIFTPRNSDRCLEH
Put plainly: Aromatase-inhibiting activity (radiometric, H^14COOH release; method of Covey et al.). The assay is classed as biochemical. On the procedure: The aromatase-inhibiting activity was measured basically according to the method described in D. F. Covey et al: BBRC […], 81-86, 1988. The aromatase-inhibiting activity of the azole derivatives used in the present invention was evaluated in terms of 50% aromatase activity-inhibiting concentration (IC50) of the derivatives.
The aromatase-inhibiting activity of each compound was measured according to the method of Covey et al: BBRC, 157 (1), 81-86, 1988. Radioactivity of a by-product H^14 COOH released from a ^14 C-labeled substrate by the action of aromatase was measured to radiometrically determine aromatase-inhibiting activity of the compounds. The aromatase-inhibiting activity of the test compound is shown by 50% aromatase activity-inhibiting concentration (IC50) of the compound.
An aromatase reaction system of the composition shown below in 67 mM phosphate buffer solution (0.5 ml) was incubated at 37° C. for 30 minutes with shaking. Chloroform (5 ml) was added to the reaction solution to stop the reaction. The reaction solution was vigorously stirred and then centrifuged to recover the by-product (H^14 COOH) of the aromatase reaction in the aqueous layer. The aqueous layer (0.1 ml) was collected and mixed with a liquid scintillation cocktail (4 ml) to measure its radioactivity.
(1) Aromatase: Microsomes of human placenta (0.1 mg/ml, protein concentration).
(2) Substrate: [19-^14 C] 4-Androstene-3,17-dione (1×10^-6 M; 2 kBq/ml).
(3) Coenzymes: Nicotinamide adenine dinucleotide phosphate, reduced form (2×10^-3 M), glucose-6-phosphate (4×10^-3 M) and glucose-6-phosphate dehydrogenase (4 U/ml).
Radioactivity of the reaction system exclusive of (1) was supposed to be background radioactivity as 100% control of aromatase inhibition. Radioactivity of the reaction system exclusive of (4) was supposed to be that of negative control as 0% of aromatase inhibition. […] 4-Hyroxyandrostenedione was used as a reference compound.
The aromatase inhibiting activities (IC50) of the optical isomers (I-3 (-) and I-3 (+)) were determined in the same way as in Example 6.

The mark [1] stands for this setting: Table 1, microsomes of human placenta, [19-14C] 4-androstene-3,17-dione 1×10^-6 M, 37° C., 30 minutes, read-out: IC50 (50% aromatase activity-inhibiting concentration).
Where [2] appears, read: read-out: IC50 of optical isomers, Example 7, same way as in Example 6.

Read-outs that look alike come from different tables or passages of the source.

Regarding `O[C@@]1(Cc2ccc(Cl)cc2)CCC[C@@H]1Cn1ccnc1` (relative stereo) [Compound I-4, 1-(4-chlorobenzyl)-t-2-(1H-imidazol-1-ylmethyl)cyclopentan-r-1-ol], the IC50 was 20 nM.
Regarding `O[C@@]1(Cc2ccccc2)CCC[C@@H]1Cn1ccnc1` (relative stereo) [Compound I-5, 1-(Benzyl)-t-2-(1H-imidazol-1-ylmethyl)cyclopentan-r-1-ol], under setting [1], the IC50 was 50 nM.
Turning to `O[C@@]1(Cc2ccc(Cl)cc2)CCC[C@H]1Cn1cncn1` (relative stereo) [Compound I-6, 1-(4-Chlorobenzyl)-c-2-(1H-1,2,4-triazol-1-ylmethyl)cyclopentan-r-1-ol], the IC50 worked out at 40 nM.
The same measure, in the same setting: next, `O[C@@]1(Cc2ccc(Cl)cc2Cl)CCC[C@H]1Cn1cncn1` (relative stereo) [Compound I-7, 1-(2,4-Dichlorobenzyl)-c-2-(1H-1,2,4-triazol-1-ylmethyl)cyclopentan-r-1-ol]: 10 nM; `O[C@@]1(Cc2ccc(F)cc2F)CCC[C@H]1Cn1cncn1` (relative stereo) [Compound I-8, 1-(2,4-Difluorobenzyl)-c-2-(1H-1,2,4-triazol-1-ylmethyl)cyclopentan-r-1-ol]: 12 nM; `O[C@@]1(Cc2ccc(-c3ccccc3)cc2)CCC[C@H]1Cn1cncn1` (relative stereo) [Compound I-9, 1-(p-Biphenylmethyl)-c-2-(1H-1,2,4-triazol-1-ylmethyl)cyclopentan-r-1-ol]: 13 nM.
On to `O[C@@]1(c2ccc(Cl)cc2)CCC[C@H]1Cn1ccnc1` (relative stereo) [Compound I-10, 1--(4-Chlorophenyl)-c-2-(1H-imidazol-1-ylmethyl)cyclopentan-r-1-ol], for which, under setting [1], the IC50 came to 30 nM.
Turning to `O[C@@]1(c2ccccc2)CCC[C@H]1Cn1ccnc1` (relative stereo) [Compound I-11, 1-(Phenyl)-c-2-(1H-imidazol-1-ylmethyl)cyclopentan-r-1-ol], the IC50 under setting [1] came out at 35 nM.
In the case of `O[C@@]1(c2ccc(Cl)cc2)CCC[C@H]1Cn1cncn1` (relative stereo) [Compound I-12, 1-(4-Chlorophenyl)-c-2-(1H-1,2,4-triazol-1-ylmethyl)cyclopentan-r-1-ol], the IC50 was 10 nM.
On the same count and under the same terms, the value for `CC1(C)C[C@@H](Cc2ccc(Cl)cc2)[C@](O)(Cn2ccnc2)C1` (relative stereo) [Compound I-19, c-2-(4-Chlorobenzyl)-1-(1H-imidazol-1-ylmethyl)-4,4-dimethylcyclopentan-r-1-ol] was 65 nM; that for `CC1(C)C[C@@H](Cc2ccc(Cl)cc2)[C@](O)(Cn2cncn2)C1` (relative stereo) [Compound I-20, c-2-(4-Chlorobenzyl)-4,4-dimethyl-1-(1H-1,2,4-triazol-1-ylmethyl)cyclopentan-r-1-ol] was 40 nM.
Compound `O[C@@]1(Cc2ccc(Cl)cc2)CCC[C@H]1Cn1ccnc1` (stereo in doubt) [Compound I-3, 1-(4-chlorobenzyl)-c-2-(1H-imidazol-1-ylmethyl)cyclopentan-r-1-ol] gave an IC50 of 40 nM.
With `O[C@@]1(Cc2ccc(Cl)cc2)CCC[C@H]1Cn1ccnc1` (stereo in doubt) [Compound I-13, nitrate of 1-(4-chlorobenzyl)-c-2-(1H-imidazol-1-ylmethyl)-cyclopentan-r-1-ol], where the note is “read-out: IC50 (50% aromatase activity-inhibiting concentration), Table 1, microsomes of human placenta, [19-14C] 4-androstene-3,17-dione 1×10^-6 M, 37° C., 30 minutes”, the IC50 was 55 nM.
`O[C@]1(Cc2ccc(Cl)cc2)CCC[C@@H]1Cn1ccnc1` (stereo in doubt) [I-3 (+), 1-(4-chlorobenzyl)-c-2-(1H-imidazol-1-ylmethyl)cyclopentan-r-1-ol]: the IC50 under setting [2] is 80 nM.
The same measure, in the same setting: next, `O[C@]1(Cc2ccc(Cl)cc2)CCC[C@@H]1Cn1ccnc1` (stereo in doubt) [I-3 (-), 1-(4-chlorobenzyl)-c-2-(1H-imidazol-1-ylmethyl)cyclopentan-r-1-ol]: 4 nM.
Regarding `CC(C)[C@](O)(CCn1ccnc1)c1ccc(Cl)cc1` [Compound I-1, (3R)-3-(4-chlorophenyl)-1-(1H-imidazol-1-yl)-4-methylpentan-3-ol], under setting [1], the IC50 was 10 nM.
For `CC(C)[C@@](O)(CCn1ccnc1)Cc1ccc(Cl)cc1` [Compound I-2, (3S)-3-(4-chlorobenzyl)-1-(1H-imidazol-1-yl)-4-methylpentan-3-ol], the IC50 was 10 nM.
Still for that read-out and setting: the value for `CC1(C)CC[C@@H]2Cc3ccc(Cl)cc3O[C@]21Cn1cncn1` [Compound I-14, (3aR,9aR)-6-chloro-2,3,9,9a-tetrahydro-3,3-dimethyl-3a(1H)-(1H-1,2,4-triazol-1-ylmethyl)cyclopenta[b][1]benzopyran] was 12 nM.
For the compound `CC1(C)CC[C@@H]2Cc3ccc(Cl)cc3O[C@]21Cn1ccnc1` [Compound I-15, (3aR,9aR)-6-Chloro-2,3,9,9a-tetrahydro-3a(1H)-(1H-imidazol-1-ylmethyl)-3,3-dimethylcyclopenta[b][1]benzopyran], the IC50 under setting [1] came out at 45 nM.
Still for that read-out and setting: next, `Clc1ccc2c(c1)O[C@]1(Cn3ccnc3)CCC[C@@H]1C2` [Compound I-16, (3aR,9aR)-6-Chloro-2,3,9,9a-tetrahydro-3a(1H)-(1H-imidazol-1-ylmethyl)cyclopenta[b][1]benzopyran]: 30 nM.
For the compound `Clc1ccc2c(c1)O[C@]1(Cn3cncn3)CCC[C@@H]1C2` [Compound I-17, (3aR,9aR)-6-Chloro-2,3,9,9a-tetrahydro-3a(1H)-(1H-1,2,4-triazol-1-ylmethyl)cyclopenta[b][1]benzopyran], the IC50 turned out to be 30 nM.
On the same count and under the same terms, the value for `Fc1cccc2c1C[C@H]1CCC[C@@]1(Cn1cncn1)O2` [Compound I-18, (3aR,9aR)-8-Fluoro-2,3,9,9a-tetrahydro-3a(1H)-(1H-1,2,4-triazol-1-ylmethyl)cyclopenta[b][1]benzopyran] was 13 nM; that for `C[C@]12CCC(=O)C(O)=C1CC[C@@H]1[C@@H]2CC[C@]2(C)C(=O)CC[C@@H]12` [Reference, 4-Hyroxyandrostenedione, reference compound] was 20 nM.
